What follows are compounds tested against T1, GLP-1R (Homo sapiens, UniProt P43220) (assay: EC20 GLP-1(9-36) PAM cAMP assay: dose response of compound in the presence of fixed concentration of GLP-1(9-36)). Details: GLP-1R CRE-bla CHO-K1 cells, compound dose response with fixed concentration of GLP-1(9-36), read-out: EC20 GLP-1(9-36) PAM EC50.
T1 construct: host or cells: GLP-1R CRE-bla CHO-K1 cells
Format: cell-based
Method in brief: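 Positive allosteric modulation read as cAMP accumulation: compound titrations (12 points) combined with an EC20 level of GLP-1(9-36) on CHO-K1 GLP-1R CRE-bla cells, IBMX present, 30 min, 37 °C, pH 7.4 buffer. Luminescence converted to cAMP via standards; non-linear fit gave EC50 and Emax.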

T1 sequence (P43220 24-463): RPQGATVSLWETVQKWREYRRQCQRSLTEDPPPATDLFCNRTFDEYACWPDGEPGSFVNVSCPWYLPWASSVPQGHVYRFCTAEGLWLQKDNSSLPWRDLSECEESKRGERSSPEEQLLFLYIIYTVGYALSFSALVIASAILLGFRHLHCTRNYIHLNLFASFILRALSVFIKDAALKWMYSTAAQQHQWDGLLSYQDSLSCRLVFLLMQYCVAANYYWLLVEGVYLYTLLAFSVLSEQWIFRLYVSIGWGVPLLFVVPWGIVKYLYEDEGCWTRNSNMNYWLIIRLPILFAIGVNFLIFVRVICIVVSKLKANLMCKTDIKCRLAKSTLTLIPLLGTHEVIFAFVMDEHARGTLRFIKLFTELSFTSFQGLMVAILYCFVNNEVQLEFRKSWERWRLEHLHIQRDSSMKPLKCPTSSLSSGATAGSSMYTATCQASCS
T1 sequence (P01275 100-127 partner limits assumed): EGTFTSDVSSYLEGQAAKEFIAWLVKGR

SMILES | EC50 [nM]
CCOc1ccc(-c2ccc(-c3cnc(-c4ccc(C[C@H](NC(=O)c5ccc(C(C)(C)C)s5)C(=O)N5CC(C(=O)O)C5)cc4)nc3)c(F)c2)cc1 [Compound 1330] | < 800
CCCCCCCOc1ccc(-c2cnc(-c3ccc(C[C@H](NC(=O)c4ccc(C(C)(C)C)s4)C(=O)N[C@H]4C[C@H](N)C4)cc3)nc2)cc1 [Compound 1281] | 2500 to 5000
C[C@@H](NC(=O)[C@H](Cc1ccc(-c2ncc(N3CCN(c4ccc(C(C)(C)C)cc4)C3=O)cn2)cc1)NC(=O)c1ccc(C(C)(C)C)s1)C(=O)O [Compound 1268] | < 800
CCC[C@H]1CC[C@H](C2CCN(c3cnc(-c4ccc(C[C@H](NC(=O)c5ccc(C(C)(C)C)s5)C(=O)NC(C(=O)O)c5ccco5)cc4)nc3)CC2)CC1 (some centres unmarked) [Compound 1454] | < 800
CC(C)(C)COc1ccc(-c2cnc(-c3ccc(C[C@H](NC(=O)c4ccc(C(C)(C)C)s4)C(=O)O)cc3)nc2)cc1 [Compound 1350] | 2500 to 5000
COCCc1ccc(C2CCN(c3cnc(-c4ccc(C[C@H](NC(=O)c5ccc(C(C)(C)C)s5)C(=O)N5CC(C(=O)O)C5)cc4)nc3)CC2)cc1 [Compound 1495] | 800 to 2500
CCC[C@H]1CC[C@H](C2CCN(c3cnc(-c4ccc(C[C@H](NC(=O)c5cc6cc(OC)ccc6[nH]5)C(=O)N5CC(C(=O)O)C5)cc4)nc3)CC2)CC1 [Compound 1525] | < 800
CCC[C@H]1CC[C@H](C2CCN(c3cnc(-c4ccc(C[C@H](NC(=O)c5ccc(C(C)(C)C)s5)C(=O)N5CC(C)(C(=O)O)C5)cc4)nc3)CC2)CC1 [Compound 1450] | < 800
CCC[C@H]1CC[C@H](C2CCN(c3cnc(-c4ccc(C[C@H](NC(=O)c5ccc(C(C)(C)C)s5)C(=O)N[C@H](CCC(N)=O)C(=O)O)cc4)nc3)CC2)CC1 [Compound 1445] | < 800
CC(C)(C)c1ccc(C(=O)N[C@@H](Cc2ccc(-c3ncc(-c4ccc(-c5ccc(C(F)(F)F)cc5)cc4F)cn3)cc2)C(=O)N2CC(C(=O)O)C2)s1 [Compound 1218] | < 800
CCCc1ccc(-c2ccc(-c3cnc(-c4ccc(C[C@H](NC(=O)c5ccc(CCC)s5)C(=O)N5CC(C(=O)O)C5)cc4)nc3)c(F)c2)cc1 [Compound 1409] | < 800
CCCc1ccc(-c2ccc(-c3cnc(-c4ccc(C[C@H](NC(=O)c5ccc(C6CC6)cc5)C(=O)N5CC(C(=O)O)C5)cc4)nc3)c(F)c2)cc1 [Compound 1410] | < 800
CCCC1CCC(C2CCN(c3cnc(-c4ccc(C[C@H](NC(=O)c5ccc(C(C)(C)C)s5)C(=O)N5CC(C(=O)O)C5)cc4)nc3)C(=O)C2)CC1 (some centres unmarked) [Compound 1496] | 800 to 2500
Cc1ccc(-c2ccc(-c3cnc(-c4ccc(C[C@H](NC(=O)c5ccc(C(C)(C)C)s5)C(=O)N[C@H](C)C(=O)O)cc4)nc3)cc2)cc1 [Compound 1283] | < 800
C[C@@H](NC(=O)[C@H](Cc1ccc(-c2ncc(/C=C/c3ccc(F)cc3)cn2)cc1)NC(=O)c1ccc(C(C)(C)C)s1)C(=O)O [Compound 1249] | 2500 to 5000

Same assay, conditions: dose response of compound in presence of fixed concentration of GLP-1(9-36), GLP-1R CRE-bla CHO-K1 cells, read-out: EC20 GLP-1(9-36) PAM EC50

EC50 [nM] | SMILES
< 800 | CC(C)(C)c1ccc(C(=O)N[C@@H](Cc2ccc(-c3ncc(-c4ccc([C@H]5CC[C@H](C)CC5)cc4)cn3)cc2)C(=O)N2CC(C(=O)O)C2)s1 [Compound 1176]
< 800 | Cc1cc(-c2ccc(-c3cnc(-c4ccc(C[C@H](NC(=O)c5ccc(C(C)(C)C)s5)C(=O)N5CC(C(=O)O)C5)cc4)nc3)c(F)c2)ccc1Cl [Compound 1199]
< 800 | CC[C@H]1CC[C@H](c2ccc(-c3cnc(-c4ccc(C[C@H](NC(=O)c5ccc(C(C)(C)C)nc5)C(=O)N5CC(C(=O)O)C5)cc4)nc3)cc2)CC1 [Compound 1163]
< 800 | CC(C)(C)c1ccc(C(=O)N[C@@H](Cc2ccc(-c3ncc(-c4ccc(-c5ccccc5)cc4)cn3)cc2)C(=O)N2CC(C(=O)O)C2)s1 [Compound 1090]
800 to 2500 | CCCCCCCOc1ccc(-c2cnc(-c3ccc(C[C@H](NC(=O)c4ccc(CCC)cc4)C(=O)N4CC(C(=O)O)C4)cc3)nc2)cc1 [Compound 1112]
< 800 | CC(=O)c1cccc(-c2ccc(-c3cnc(-c4ccc(C[C@H](NC(=O)c5ccc(C(C)(C)C)s5)C(=O)N5CC(C(=O)O)C5)cc4)nc3)c(F)c2)c1 [Compound 1193]
800 to 2500 | CC(C)(C)c1ccc(C(=O)N[C@@H](Cc2ccc(-c3ncc(-c4ccc(C5CCCC5)cc4)cn3)cc2)C(=O)N2CC(C(=O)O)C2)s1 [Compound 1089]
< 800 | Cc1cc(C)cc(-c2ccc(-c3cnc(-c4ccc(C[C@H](NC(=O)c5ccc(C(C)(C)C)s5)C(=O)N5CC(C(=O)O)C5)cc4)nc3)c(F)c2)c1 [Compound 1191]

Further lines, the compound ahead of its results:

SMILES | EC50 [nM]
COc1ccccc1-c1ccc(-c2cnc(-c3ccc(C[C@H](NC(=O)c4ccc(C(C)(C)C)s4)C(=O)N[C@H](C)C(=O)O)cc3)nc2)cc1 [Compound 1012] | 2500 to 5000
CCCCCCOc1cccc(-c2noc(-c3cnc(-c4ccc(C[C@H](NC(=O)c5ccc(C(C)(C)C)cc5)C(=O)NCCC(=O)O)cc4)nc3)n2)c1 [Compound 760] | 800 to 2500
CCCCCCCOc1ccc(-c2cnc(-c3ccc(CC(NC(=O)c4ccc(C(C)(C)C)s4)C(=O)N[C@@H](Cc4ccccc4)C(=O)O)cc3)nc2)cc1 (some centres unmarked) [Compound 415] | < 800
CCCCCCCOc1ccc(-c2cnc(-c3ccc(C[C@H](NC(=O)c4ccc(C(C)(C)C)cc4)C(=O)NC(C)(C)C(=O)O)cc3)nc2)cc1 [Compound 409] | 800 to 2500
CCCCCCCOc1ccc(-c2cnc(-c3ccc(C[C@H](NC(=O)c4ccc(C(C)(C)C)s4)C(=O)NC(C(=O)O)C(O)C(F)(F)F)cc3)nc2)cc1 (some centres unmarked) [Compound 882] | 800 to 2500
CCCCCCCOc1ccc2cc(-c3ccc(C[C@H](NC(=O)c4ccc(C(C)(C)C)cc4)C(=O)N[C@H](C)C(=O)O)cc3)ncc2c1 [Compound 808] | 2500 to 5000
CCC/C=C\CCOc1ccc(-c2cnc(-c3ccc(C[C@H](NC(=O)c4ccc(C(C)(C)C)cc4)C(=O)NCCC(=O)O)cc3)nc2)cc1 [Compound 715] | 2500 to 5000
CCCCCCCOc1ccc(-c2cnc(-c3ccc(C[C@H](NC(=O)c4ccc(C(C)(C)C)s4)C(=O)NC(Cc4ccccc4)C(=O)O)cc3)nc2)cc1 (some centres unmarked) [Compound 611] | < 800
CCCCCCCOc1ccc(-c2cnc(-c3ccc(C[C@H](NC(=O)c4ccc(C(C)(C)C)s4)C(=O)NC4CCC(C(=O)O)C4)cc3)nc2)cc1 (some centres unmarked) [Compound 608] | 800 to 2500
CCCCCCCOc1ccc2nc(-c3ccc(C[C@H](NC(=O)c4ccc(C(C)(C)C)cc4)C(=O)N[C@H](C)C(=O)O)cc3)ncc2c1 [Compound 809] | 800 to 2500
CCCCCCCOc1ccc(-c2cnc(-c3ccc(C[C@H](NC(=O)c4ccc(C(C)(C)C)s4)C(=O)NC4CCCC(C(=O)O)C4)cc3)nc2)cc1 (some centres unmarked) [Compound 535] | 5000 to 10000
CCCCCOc1ccc(-c2cnc(-c3ccc(C[C@H](NC(=O)c4ccc(C(C)(C)C)s4)C(=O)N4CC(C(=O)O)C4)cc3)nc2)cc1 [Compound 787] | 800 to 2500
CCCCCCCOc1ccc(-c2cnc(-c3ccc(C[C@H](NC(=O)c4ccc(C(C)(C)C)s4)C(=O)N[C@H](C(=O)O)[C@H](O)c4ccccc4)cc3)nc2)cc1 [Compound 642] | < 800
CCCCCCCOc1ccc(-c2cnc(-c3ccc(C[C@H](NC(=O)c4ccc(C(C)(C)C)cc4)C(=O)N4C[C@@H](O)C[C@@H]4C(=O)O)cc3)nc2)cc1 [Compound 586] | < 800
CCCCCCCOc1ccc(-c2cnc(-c3ccc(C[C@H](NC(=O)c4ccc(C(C)(C)C)cc4)C(=O)NCC(CC4CCOCC4)C(=O)O)cc3)nc2)cc1 (some centres unmarked) [Compound 559] | 5000 to 10000
Cc1ccc(-c2ccc(-c3cnc(-c4ccc(C[C@H](NC(=O)c5ccc(C(C)(C)C)cc5)C(=O)N[C@H](C)C(=O)O)cc4)nc3)cc2)cc1 [Compound 727] | 2500 to 5000
CCCCCCCOc1ccc(-c2cnc(-c3ccc(C[C@H](NC(=O)c4ccc(C(C)(C)C)s4)C(=O)O)cc3)nc2)nc1 [Compound 1062, (S)-2-(5-(tert-butyl)thiophene-2-carboxamido)-3-(4-(5-(5-(heptyloxy)pyridin-2-yl)pyrimidin-2-yl)phenyl)propanoic acid] | 800 to 2500
CCCCCCCOc1ccc(N2CCN(c3ccc(C[C@H](NC(=O)c4ccc(C(C)(C)C)cc4)C(=O)N[C@H](C)C(=O)O)cc3)CC2)cc1 [Compound 804] | 800 to 2500
Cc1cc(-c2cnc(-c3ccc(C[C@H](NC(=O)c4ccc(C(C)(C)C)s4)C(=O)N4CC[C@H](C(=O)O)C4)cc3)nc2)ccc1OC(C)C [Compound 1087] | < 800
CCCCCCCOc1ccc(-c2cnc(-c3ccc(C[C@H](NC(=O)c4ccc(OC)cc4)C(=O)N[C@H](C)C(=O)O)cc3)nc2)cc1 [Compound 817] | 800 to 2500
CCCCCCCOc1ccc(-c2cnc(-c3ccc(C[C@H](NC(=O)c4ccc(OC(C)C)cc4)C(=O)N4CC[C@H](C(=O)O)C4)cc3)nc2)cc1 [Compound 849] | 2500 to 5000
CCCCCCCOc1ccc(-c2cnc(-c3ccc(C[C@H](NC(=O)c4ccc(C(C)(C)C)s4)C(=O)NC(C(=O)O)c4ccc(C(F)(F)F)cc4)cc3)nc2)cc1 (some centres unmarked) [Compound 618] | 5000 to 10000
CCCCCCCOc1ccc(-c2cnc(-c3ccc(C[C@H](NC(=O)c4ccc(C(C)(C)C)s4)C(=O)N4CCC(C)(N)C4)cc3)nc2)cc1 (some centres unmarked) [Compound 988] | 5000 to 10000
CCCCCCCOc1ccc(-c2cnc(-c3ccc(C[C@H](NC(=O)c4ccc(C(C)(C)C)s4)C(=O)N4CCC(NC)CC4)cc3)nc2)cc1 [Compound 464] | 5000 to 10000
CCCCCCCOc1ccc(-c2cnc(-c3ccc(C[C@H](NC(=O)c4ccc(C(C)(C)C)cc4)C(=O)NCCC(=O)O)cc3)nc2)cc1C1CC1 [Compound 704] | 800 to 2500
CC(C)CCCCOc1ccc(-c2cnc(-c3ccc(C[C@H](NC(=O)c4ccc(C(C)(C)C)s4)C(=O)N4CC[C@H](C(=O)O)C4)cc3)nc2)cc1 [Compound 772] | < 800
CCCCCCCOc1ccc(-c2cnc(-c3ccc(C[C@H](NC(=O)c4ccc(C(C)(C)C)cc4)C(=O)NC(CC)C(=O)O)cc3)nc2)cc1 (some centres unmarked) [Compound 548] | < 800
